Laboratory results from the NIST ThermoML archive (doi:10.1021/je800157v).

Assays:
[1] = xn = mol fraction of the nth substance listed; conditions: 101 kPa, Liquid
[2] = 101 kPa, Liquid

CCC(C)O (stereo not given) [butan-2-ol] + ClC(Cl)Cl
[1], x1 = 1
Conditions | mass density [kg/m3]
288.15 K | 810.64
293.15 K | 806.59
298.15 K | 802.47
303.15 K | 798.27
308.15 K | 793.97
313.15 K | 789.59

c1ccccc1 [benzene]
[2]
Conditions | mass density [kg/m3]
288.15 K | 884.25
293.15 K | 878.92
298.15 K | 873.58
303.15 K | 868.23
308.15 K | 862.87
313.15 K | 857.5

c1ccccc1 [benzene] + CCC(C)O
[1], x2 = 0
Conditions | mass density [kg/m3]
288.15 K | 884.25
293.15 K | 878.92
298.15 K | 873.58
303.15 K | 868.23
308.15 K | 862.87
313.15 K | 857.5

CCC(C)O (stereo not given) [butan-2-ol]
[2]
Conditions | mass density [kg/m3]
288.15 K | 810.64
293.15 K | 806.59
298.15 K | 802.47
303.15 K | 798.27
308.15 K | 793.97
313.15 K | 789.59

ClC(Cl)Cl [trichloromethane]
[2]
Conditions | mass density [kg/m3]
288.15 K | 1498.08
293.15 K | 1488.64
298.15 K | 1479.15
303.15 K | 1469.61
308.15 K | 1460.03
313.15 K | 1450.41
